According to patent publication US8901120B2, “Substituted N-phenylpyrimidin-2-amine analogs as inhibitors of the Axl kinase” (University of Utah Research Foundation, priority 2011, dated 2014):
Where two headings read alike, the source gives them in different places.

Target: T1, recombinant human Axl kinase (catalytic domain, amino acids 473-894) (Homo sapiens, UniProt P30530)
T1 construct: catalytic domain, amino acids 473-894; purchased Invitrogen Corporation, Carlsbad, Calif
T1 sequence (P30530 473-894): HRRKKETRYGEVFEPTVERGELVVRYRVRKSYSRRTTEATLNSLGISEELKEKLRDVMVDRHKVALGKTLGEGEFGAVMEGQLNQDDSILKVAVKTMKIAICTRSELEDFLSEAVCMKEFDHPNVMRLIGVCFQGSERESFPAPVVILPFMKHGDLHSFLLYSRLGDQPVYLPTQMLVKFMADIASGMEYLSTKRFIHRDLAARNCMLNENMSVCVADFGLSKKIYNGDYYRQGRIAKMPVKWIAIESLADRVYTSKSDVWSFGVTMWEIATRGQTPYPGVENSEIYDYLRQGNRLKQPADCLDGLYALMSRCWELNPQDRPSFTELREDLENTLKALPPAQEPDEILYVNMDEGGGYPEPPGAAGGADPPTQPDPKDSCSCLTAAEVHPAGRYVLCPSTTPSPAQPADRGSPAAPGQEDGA
Assay: Axl kinase activity assay (TR-FRET, fluorescein poly-GT substrate)
Format: biochemical
Description: Test compounds were diluted to desired concentrations in kinase reaction buffer (50 mM HEPES pH 7.5, 10 mM MgCl2, 1 mM EGTA, 2 mM DTT, and 0.01% v/v Tween-20) and were briefly incubated with Axl kinase (Invitrogen Corporation, Carlsbad, Calif.). The Axl kinase used was recombinant human Axl kinase (catalytic domain, amino acids 473-894) with a histidine tag. The reaction was initiated by the addition of ATP and fluorescein-labeled poly-GT substrate (poly Glu:Tyr, 4:1 polymer; Invitrogen). Concentration of the various components in the assay (10 μl reaction volume) were: 1% DMSO, 93 ng/ml Axl kinase, 20 μM ATP, and 200 nM fluorescein poly-GT substrate. Following addition of ATP and fluorescein poly-GT substrate, incubation was for 60 min at room temperature, the enzyme reaction is stopped by addition of 10 μl terbium-labeled anti-phosphotyrosine PY20 antibody in EDTA-containing buffer. Final concentration of EDTA and antibody after addition to the reaction is 10 mM and 2 nM, respectively. The terbium conjugated antibody generates a time-resolved FRET signal with the fluorescein molecule (bound to the poly-GT substrate) when the substrate is phosphorylated. After one hour incubation at room temperature, fluorescence was measured with excitation of 320 nm and dual emission of 495 and 520 urn on an EnVision microplate reader (PerkinElmer). Signal is expressed in terms of a TR-FRET ratio (fluorescence intensity at 520 nm to 495 nm).
IC50 values are determined using GraphPad Prism 5 software. The data were entered as an X-Y plot into the software as percent inhibition for each concentration of the drug. The concentration values of the drug were log transformed and the nonlinear regression was carried out using the “sigmoidal dose-response (variable slope)” option within the GraphPad software to model the data and calculate IC50 values.

[1] = 20 μM ATP, 93 ng/ml Axl kinase, 60 min, read-out: IC50 (Axl kinase activity)

Compound | IC50 (tested in triplicate, FIG. 4A, read-out: IC50, inhibition of Axl activity) [nM] | IC50 [1] [nM]
CN1CCN(Cc2ccc(Nc3ncc(Cl)c(Nc4ccccc4S(=O)(=O)N4CCCC4)n3)cc2)CC1 [5-chloro-N2-(4-((4-methylpiperazin-1-yl)methyl)phenyl)-N4-(2-(pyrrolidin-1-ylsulfonyl)phenyl)pyrimidine-2,4-diamine] | ~20 | –
CN1CCN(Cc2ccc(Nc3ncc(Cl)c(Nc4ccc(F)cc4S(=O)(=O)N4CCOCC4)n3)cc2)CC1 [Compound 10] | – | 240
CN1CCN(Cc2ccc(Nc3ncc(F)c(-c4ccc(F)cc4S(=O)(=O)N4CCCC4)n3)cc2)CC1 [Compound 16] | – | 1140
CN1CCN(Cc2ccc(Nc3ncc(Cl)c(Nc4ccc(O)cc4S(=O)(=O)N4CCCC4)n3)cc2)CC1 [Compound 17] | – | 1310
COc1cccc(-c2nc(Nc3ccc(CN4CCN(C)CC4)cc3)ncc2C)c1 [Compound 19] | – | 1610
Cc1cnc(Nc2ccc(CN3CCN(C)CC3)cc2)nc1-c1ccc(F)cc1 [Compound 21] | – | 1860
Cc1cnc(Nc2ccc(CN3CCN(C)CC3)cc2)nc1-c1cccc(S(C)(=O)=O)c1 [Compound 23] | – | 2910
Cc1cnc(Nc2ccc(CN3CCN(C)CC3)cc2)nc1-c1ccc(F)cc1S(=O)(=O)N1CCCC1 [Compound 24] | – | 2930
CN1CCN(Cc2ccc(Nc3ncc(C4CC4)c(-c4ccc(F)c(Cl)c4)n3)cc2)CC1 [Compound 26] | – | 3350
Cc1cnc(Nc2ccc(CN3CCN(C)CC3)cc2)nc1-c1cc(Cl)cc(C(F)(F)F)c1 [Compound 28] | – | 5140
CN1CCN(Cc2ccc(Nc3nc(N)cc(-c4ccc(F)c(Cl)c4)n3)cc2)CC1 [Compound 29] | – | 57200
Cc1cnc(Nc2ccc(CN3CCN(C)CC3)cc2)nc1Nc1ccc(F)c(Cl)c1 [Compound 30] | – | 62700
CN1CCN(Cc2ccc(Nc3ncc(C(F)(F)F)c(Nc4ccccc4C(=O)N(C)C)n3)cc2)CC1 [Compound 31] | – | > 100000

Further molecules by falling IC50 [1], results first:

IC50 (tested in triplicate, FIG. 4A, read-out: IC50, inhibition of Axl activity) [nM] | IC50 [1] [nM] | Compound
– | 3900 | CN1CCN(Cc2ccc(Nc3ncc(Cl)c(N(C)c4ccc(F)cc4S(=O)(=O)N4CCCC4)n3)cc2)CC1 [Compound 27]
– | 3300 | Cc1cnc(Nc2ccc(CN3CCN(C)CC3)cc2)nc1-c1cccc(OC(F)(F)F)c1 [Compound 25]
– | 2300 | CC(=O)Nc1cccc(-c2nc(Nc3ccc(CN4CCN(C)CC4)cc3)ncc2C)c1 [Compound 22]
– | 1830 | Cc1ccc(-c2nc(Nc3ccc(CN4CCN(C)CC4)cc3)ncc2C)cc1C#N [Compound 20]
– | 1400 | Cc1cnc(Nc2ccc(CN3CCN(C)CC3)cc2)nc1Oc1ccc(F)c(Cl)c1 [Compound 18]
– | 1080 | CN1CCN(Cc2ccc(Nc3ncc(Cl)c(Nc4ccc(Cl)cc4S(=O)(=O)N4CCCC4)n3)cc2)CC1 [Compound 15]
– | 99 | CN1CCN(Cc2ccc(Nc3ncc(Cl)c(-c4ccc(F)cc4S(=O)(=O)N(C)C)n3)cc2)CC1 [Compound 8]
